Test results reported in PMC7026418, “The kinase polypharmacology landscape of clinical PARP inhibitors” (Scientific Reports, 2020).
Where two headings read alike, the source gives them in different places. One block for each compound: values may come before it.

Experiments:
Assay in all cases: biochemical
Set-up in all cases: DiscoveRx KINOMEscan active site-directed competition binding; percent of control kinase bound to immobilised ligand
BMPR1B = BMPR1B (Homo sapiens, UniProt O00238)
YANK3 = molecular target: T1, YANK3 (Homo sapiens, UniProt Q86UX6)
T1 construct: gene STK32C

EPHA8 = molecular target: T2, EPHA8 (Homo sapiens, UniProt P29322)
T2 sequence (P29322 1-1005): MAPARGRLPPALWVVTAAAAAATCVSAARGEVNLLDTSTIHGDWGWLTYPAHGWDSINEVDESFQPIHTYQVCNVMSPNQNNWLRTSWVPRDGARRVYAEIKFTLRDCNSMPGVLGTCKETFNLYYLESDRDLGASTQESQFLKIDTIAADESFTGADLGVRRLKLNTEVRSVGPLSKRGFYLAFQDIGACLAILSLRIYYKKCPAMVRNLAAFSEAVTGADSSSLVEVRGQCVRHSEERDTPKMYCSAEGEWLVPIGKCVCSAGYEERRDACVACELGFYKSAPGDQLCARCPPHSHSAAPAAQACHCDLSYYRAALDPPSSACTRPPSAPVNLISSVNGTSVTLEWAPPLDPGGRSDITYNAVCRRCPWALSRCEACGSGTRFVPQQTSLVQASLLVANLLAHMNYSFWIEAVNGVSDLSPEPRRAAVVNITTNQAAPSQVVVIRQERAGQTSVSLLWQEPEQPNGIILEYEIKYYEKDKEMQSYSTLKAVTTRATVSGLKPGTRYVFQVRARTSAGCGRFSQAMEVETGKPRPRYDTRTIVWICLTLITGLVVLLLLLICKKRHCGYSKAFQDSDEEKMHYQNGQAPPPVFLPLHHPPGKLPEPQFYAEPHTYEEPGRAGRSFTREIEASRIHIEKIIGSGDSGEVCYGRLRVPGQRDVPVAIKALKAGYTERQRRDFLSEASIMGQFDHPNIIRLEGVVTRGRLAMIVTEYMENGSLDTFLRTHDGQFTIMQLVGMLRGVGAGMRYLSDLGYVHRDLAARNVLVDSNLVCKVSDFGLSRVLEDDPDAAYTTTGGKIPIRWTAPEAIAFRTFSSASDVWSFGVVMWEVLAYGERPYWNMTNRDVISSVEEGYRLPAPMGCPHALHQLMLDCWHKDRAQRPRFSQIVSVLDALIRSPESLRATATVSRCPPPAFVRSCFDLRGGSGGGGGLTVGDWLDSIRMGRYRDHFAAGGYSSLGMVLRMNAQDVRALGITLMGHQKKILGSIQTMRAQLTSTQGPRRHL

PDGFRB = PDGFRB (Homo sapiens, UniProt P09619)
YANK1 = molecular target: T3, YANK1 (Homo sapiens, UniProt Q8WU08)
T3 construct: gene STK32A

MLK1 = molecular target: T4, MLK1 (Homo sapiens, UniProt P80192)
T4 construct: gene MAP3K9

PDGFRA = PDGFRA (Homo sapiens, UniProt P16234)
[1] = molecular target: T5, RPS6KA5(Kin.Dom.1-N-terminal) (Homo sapiens, UniProt O75582)
T5 construct: Kin.Dom.1-N-terminal

DAPK1 = DAPK1 (Homo sapiens, UniProt P53355)
CDC2L2 = molecular target: T6, CDC2L2 (Homo sapiens, UniProt Q9UQ88)
T6 construct: gene CDK11A
T6 sequence (Q9UQ88 1-783): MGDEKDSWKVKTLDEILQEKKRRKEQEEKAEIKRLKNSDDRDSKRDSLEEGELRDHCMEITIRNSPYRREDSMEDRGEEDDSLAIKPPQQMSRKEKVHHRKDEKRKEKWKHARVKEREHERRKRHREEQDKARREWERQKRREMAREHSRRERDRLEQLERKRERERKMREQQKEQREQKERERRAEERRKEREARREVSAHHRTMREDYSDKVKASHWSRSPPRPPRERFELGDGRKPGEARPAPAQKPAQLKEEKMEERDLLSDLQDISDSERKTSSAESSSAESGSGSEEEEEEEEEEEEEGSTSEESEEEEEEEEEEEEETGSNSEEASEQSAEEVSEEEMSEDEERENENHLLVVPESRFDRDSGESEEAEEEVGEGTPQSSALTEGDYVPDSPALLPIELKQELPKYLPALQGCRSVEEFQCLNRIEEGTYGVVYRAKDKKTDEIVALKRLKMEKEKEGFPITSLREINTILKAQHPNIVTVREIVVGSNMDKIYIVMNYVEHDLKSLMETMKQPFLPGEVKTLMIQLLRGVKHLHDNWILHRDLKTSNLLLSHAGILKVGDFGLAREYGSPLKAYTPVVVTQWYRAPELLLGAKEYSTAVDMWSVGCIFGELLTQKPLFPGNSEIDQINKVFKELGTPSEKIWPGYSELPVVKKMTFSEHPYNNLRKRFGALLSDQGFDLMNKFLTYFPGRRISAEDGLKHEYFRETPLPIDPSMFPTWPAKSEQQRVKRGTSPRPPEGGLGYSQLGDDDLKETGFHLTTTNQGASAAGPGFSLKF

PRKCD = PRKCD (Homo sapiens, UniProt Q05655)
[2] = read-out: Niraparib (MK-4827) / %Ctrl @ 10000nM
[3] = read-out: Olaparib / %Ctrl @ 10000nM
[4] = read-out: Rucaparib / %Ctrl @ 10000nM, binding competition, % of control
[5] = read-out: Talazoparib (BMN 673) / %Ctrl @ 10000nM

Sequence of PDGFRB (P09619 whole entry): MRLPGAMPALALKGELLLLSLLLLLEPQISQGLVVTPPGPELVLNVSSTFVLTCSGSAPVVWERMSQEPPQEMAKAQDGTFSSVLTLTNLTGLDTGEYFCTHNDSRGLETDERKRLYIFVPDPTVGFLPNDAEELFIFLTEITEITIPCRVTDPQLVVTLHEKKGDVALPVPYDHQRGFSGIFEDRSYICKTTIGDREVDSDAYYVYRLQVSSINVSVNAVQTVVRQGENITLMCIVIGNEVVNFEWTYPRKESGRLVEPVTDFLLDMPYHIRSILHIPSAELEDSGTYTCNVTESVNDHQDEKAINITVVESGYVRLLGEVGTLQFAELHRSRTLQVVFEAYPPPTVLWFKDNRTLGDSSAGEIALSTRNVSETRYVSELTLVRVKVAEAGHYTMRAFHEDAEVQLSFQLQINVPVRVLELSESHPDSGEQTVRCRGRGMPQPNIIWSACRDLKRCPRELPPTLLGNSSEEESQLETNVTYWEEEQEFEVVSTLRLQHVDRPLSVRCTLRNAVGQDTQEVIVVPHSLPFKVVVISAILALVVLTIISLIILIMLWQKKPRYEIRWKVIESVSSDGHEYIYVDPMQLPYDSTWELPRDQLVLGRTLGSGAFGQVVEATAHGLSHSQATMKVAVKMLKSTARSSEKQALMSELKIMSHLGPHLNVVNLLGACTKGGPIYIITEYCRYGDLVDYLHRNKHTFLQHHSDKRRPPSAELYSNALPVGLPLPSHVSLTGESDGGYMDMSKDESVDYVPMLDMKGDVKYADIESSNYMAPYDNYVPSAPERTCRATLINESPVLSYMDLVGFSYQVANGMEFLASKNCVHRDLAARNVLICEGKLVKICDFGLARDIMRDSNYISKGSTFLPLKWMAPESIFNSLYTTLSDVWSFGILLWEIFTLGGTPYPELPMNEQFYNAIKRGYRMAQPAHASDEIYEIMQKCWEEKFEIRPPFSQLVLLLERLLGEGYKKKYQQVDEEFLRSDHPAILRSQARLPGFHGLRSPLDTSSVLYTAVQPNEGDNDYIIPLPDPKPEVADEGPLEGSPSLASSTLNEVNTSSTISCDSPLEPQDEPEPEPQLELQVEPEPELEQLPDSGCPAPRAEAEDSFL
T3 sequence (Q8WU08 whole entry): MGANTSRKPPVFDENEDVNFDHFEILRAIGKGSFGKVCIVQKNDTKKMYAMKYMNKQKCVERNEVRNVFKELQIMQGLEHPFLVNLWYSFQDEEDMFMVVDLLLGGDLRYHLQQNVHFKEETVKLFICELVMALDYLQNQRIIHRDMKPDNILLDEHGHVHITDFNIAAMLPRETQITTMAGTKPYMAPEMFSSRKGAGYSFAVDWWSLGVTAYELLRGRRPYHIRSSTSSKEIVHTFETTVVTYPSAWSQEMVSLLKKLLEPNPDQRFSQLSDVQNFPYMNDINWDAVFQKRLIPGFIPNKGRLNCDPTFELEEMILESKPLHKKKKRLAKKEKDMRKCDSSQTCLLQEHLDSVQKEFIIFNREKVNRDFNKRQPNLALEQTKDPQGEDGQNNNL
T4 sequence (P80192 whole entry): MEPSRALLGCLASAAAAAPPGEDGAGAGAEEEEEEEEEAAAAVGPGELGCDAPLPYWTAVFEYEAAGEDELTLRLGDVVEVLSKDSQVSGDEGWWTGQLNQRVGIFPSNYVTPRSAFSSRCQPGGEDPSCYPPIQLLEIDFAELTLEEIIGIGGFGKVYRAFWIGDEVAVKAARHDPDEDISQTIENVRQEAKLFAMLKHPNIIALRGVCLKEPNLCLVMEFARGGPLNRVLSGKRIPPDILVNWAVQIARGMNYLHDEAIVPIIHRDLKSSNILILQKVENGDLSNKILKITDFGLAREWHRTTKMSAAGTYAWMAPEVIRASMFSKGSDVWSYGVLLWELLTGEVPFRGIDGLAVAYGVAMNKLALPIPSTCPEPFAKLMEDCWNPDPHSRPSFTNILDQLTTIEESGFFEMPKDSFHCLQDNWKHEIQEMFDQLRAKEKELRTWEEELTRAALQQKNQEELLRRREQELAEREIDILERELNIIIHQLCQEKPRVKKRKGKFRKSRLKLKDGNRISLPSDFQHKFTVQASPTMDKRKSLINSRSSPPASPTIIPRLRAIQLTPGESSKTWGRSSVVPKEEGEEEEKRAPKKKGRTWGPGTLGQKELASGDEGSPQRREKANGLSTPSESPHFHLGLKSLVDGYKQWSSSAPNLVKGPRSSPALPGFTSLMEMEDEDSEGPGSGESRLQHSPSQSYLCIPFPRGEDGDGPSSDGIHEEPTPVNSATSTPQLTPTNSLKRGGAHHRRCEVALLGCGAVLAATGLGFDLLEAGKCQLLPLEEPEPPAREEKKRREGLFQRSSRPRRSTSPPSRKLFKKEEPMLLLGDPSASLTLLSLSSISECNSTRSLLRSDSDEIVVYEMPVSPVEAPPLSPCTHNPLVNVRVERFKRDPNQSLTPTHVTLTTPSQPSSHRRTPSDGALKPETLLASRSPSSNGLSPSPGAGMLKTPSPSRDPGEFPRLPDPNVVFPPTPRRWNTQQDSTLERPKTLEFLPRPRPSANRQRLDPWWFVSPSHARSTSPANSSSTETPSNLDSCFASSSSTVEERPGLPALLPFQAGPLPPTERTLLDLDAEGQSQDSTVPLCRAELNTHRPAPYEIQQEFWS
T1 sequence (Q86UX6 whole entry): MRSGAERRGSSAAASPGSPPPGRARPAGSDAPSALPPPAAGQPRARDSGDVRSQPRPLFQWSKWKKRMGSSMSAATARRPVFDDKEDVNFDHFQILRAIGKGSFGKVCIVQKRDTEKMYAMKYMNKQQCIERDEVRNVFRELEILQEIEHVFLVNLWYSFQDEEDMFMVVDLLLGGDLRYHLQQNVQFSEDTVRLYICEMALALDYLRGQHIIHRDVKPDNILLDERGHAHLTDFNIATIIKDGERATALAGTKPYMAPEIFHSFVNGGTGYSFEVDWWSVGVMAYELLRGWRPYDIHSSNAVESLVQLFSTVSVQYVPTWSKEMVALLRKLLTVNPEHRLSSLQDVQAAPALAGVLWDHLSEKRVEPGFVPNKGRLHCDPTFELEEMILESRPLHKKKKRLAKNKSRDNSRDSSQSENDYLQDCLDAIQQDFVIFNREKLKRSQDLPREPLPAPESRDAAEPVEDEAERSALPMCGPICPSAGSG
Sequence of PRKCD (Q05655 whole entry): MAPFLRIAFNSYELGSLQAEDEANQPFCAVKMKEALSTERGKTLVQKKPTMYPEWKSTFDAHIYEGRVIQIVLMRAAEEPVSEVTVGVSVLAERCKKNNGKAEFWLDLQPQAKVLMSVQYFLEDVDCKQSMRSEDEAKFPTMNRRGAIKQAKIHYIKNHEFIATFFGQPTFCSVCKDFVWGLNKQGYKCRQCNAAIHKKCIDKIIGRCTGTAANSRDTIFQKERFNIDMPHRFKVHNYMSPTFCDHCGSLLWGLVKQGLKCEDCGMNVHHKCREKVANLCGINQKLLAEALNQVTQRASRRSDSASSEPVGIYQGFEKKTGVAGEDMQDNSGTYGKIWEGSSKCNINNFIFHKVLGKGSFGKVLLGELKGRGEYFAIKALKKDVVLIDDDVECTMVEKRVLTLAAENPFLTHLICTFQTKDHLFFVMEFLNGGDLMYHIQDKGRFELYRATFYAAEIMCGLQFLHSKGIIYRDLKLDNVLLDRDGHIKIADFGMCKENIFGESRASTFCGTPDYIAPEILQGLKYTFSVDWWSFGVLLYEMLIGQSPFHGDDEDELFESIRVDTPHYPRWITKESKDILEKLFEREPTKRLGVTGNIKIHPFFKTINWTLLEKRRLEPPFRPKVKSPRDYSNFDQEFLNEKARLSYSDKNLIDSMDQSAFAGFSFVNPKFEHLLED
T5 sequence (O75582 whole entry): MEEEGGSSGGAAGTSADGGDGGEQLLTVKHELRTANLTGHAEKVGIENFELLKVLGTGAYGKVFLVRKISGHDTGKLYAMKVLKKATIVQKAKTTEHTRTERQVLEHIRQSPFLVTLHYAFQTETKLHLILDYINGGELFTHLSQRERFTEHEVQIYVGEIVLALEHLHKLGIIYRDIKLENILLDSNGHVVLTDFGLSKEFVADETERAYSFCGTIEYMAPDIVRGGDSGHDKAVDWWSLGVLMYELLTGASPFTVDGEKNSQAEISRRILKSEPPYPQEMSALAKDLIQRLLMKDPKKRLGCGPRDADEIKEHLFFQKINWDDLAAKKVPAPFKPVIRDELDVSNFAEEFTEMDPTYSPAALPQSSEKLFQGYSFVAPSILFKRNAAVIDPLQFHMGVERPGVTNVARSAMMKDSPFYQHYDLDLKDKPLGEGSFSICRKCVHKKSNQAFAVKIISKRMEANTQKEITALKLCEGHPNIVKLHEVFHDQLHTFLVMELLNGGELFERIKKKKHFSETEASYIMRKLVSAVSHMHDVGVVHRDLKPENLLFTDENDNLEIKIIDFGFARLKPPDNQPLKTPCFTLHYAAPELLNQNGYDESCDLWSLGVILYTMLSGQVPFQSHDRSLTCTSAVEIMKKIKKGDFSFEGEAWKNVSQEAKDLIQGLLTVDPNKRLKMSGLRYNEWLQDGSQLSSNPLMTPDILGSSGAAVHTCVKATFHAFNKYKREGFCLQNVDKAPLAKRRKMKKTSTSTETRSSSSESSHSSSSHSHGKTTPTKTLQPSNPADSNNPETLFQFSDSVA
Sequence of BMPR1B (O00238 whole entry): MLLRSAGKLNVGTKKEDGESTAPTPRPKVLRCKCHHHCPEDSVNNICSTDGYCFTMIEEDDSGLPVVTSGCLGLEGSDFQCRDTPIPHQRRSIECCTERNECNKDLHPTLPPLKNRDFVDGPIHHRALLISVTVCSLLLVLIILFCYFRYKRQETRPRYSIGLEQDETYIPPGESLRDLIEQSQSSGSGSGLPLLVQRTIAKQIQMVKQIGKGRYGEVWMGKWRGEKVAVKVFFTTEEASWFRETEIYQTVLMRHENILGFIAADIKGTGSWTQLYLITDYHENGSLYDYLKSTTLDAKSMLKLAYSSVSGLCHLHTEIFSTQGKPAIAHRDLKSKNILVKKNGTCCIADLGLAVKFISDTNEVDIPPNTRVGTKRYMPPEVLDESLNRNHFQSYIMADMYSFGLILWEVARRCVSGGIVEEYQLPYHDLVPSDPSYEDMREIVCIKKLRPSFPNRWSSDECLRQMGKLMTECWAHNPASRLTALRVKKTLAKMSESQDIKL

Compound: NC(=O)c1cccc2cn(-c3ccc([C@@H]4CCCNC4)cc3)nc12 [Niraparib]
percent of control binding at 10 µM (BMPR1B; [2]): 87%
percent of control binding at 10 µM (YANK3; [2]): 86%
percent of control binding at 10 µM (EPHA8; [2]): 80%
percent of control binding at 10 µM (PDGFRB; [2]): 90%
percent of control binding at 10 µM (YANK1; [2]): 99%
percent of control binding at 10 µM (MLK1; [2]): 87%
percent of control binding at 10 µM (PDGFRA; [2]): 69%
percent of control binding at 10 µM [1, 2]: 99%
percent of control binding at 10 µM (DAPK1; [2]): 77%
percent of control binding at 10 µM (CDC2L2; [2]): 83%
percent of control binding at 10 µM (PRKCD; [2]): 93%

percent of control binding at 10 µM (BMPR1B; [3]): 81%
percent of control binding at 10 µM (YANK3; [3]): 83%
percent of control binding at 10 µM (EPHA8; [3]): 98%
percent of control binding at 10 µM (PDGFRB; [3]): 96%
percent of control binding at 10 µM (YANK1; [3]): 86%
percent of control binding at 10 µM (MLK1; [3]): 100%
percent of control binding at 10 µM (PDGFRA; [3]): 75%
percent of control binding at 10 µM [1, 3]: 94%
percent of control binding at 10 µM (DAPK1; [3]): 87%
percent of control binding at 10 µM (CDC2L2; [3]): 100%
percent of control binding at 10 µM (PRKCD; [3]): 95%
Compound: O=C(c1cc(Cc2n[nH]c(=O)c3ccccc23)ccc1F)N1CCN(C(=O)C2CC2)CC1 [Olaparib]

percent of control binding at 10 µM (BMPR1B; [4]): 80%
percent of control binding at 10 µM (YANK3; [4]): 72%
percent of control binding at 10 µM (EPHA8; [4]): 100%
percent of control binding at 10 µM (PDGFRB; [4]): 98%
percent of control binding at 10 µM (YANK1; [4]): 69%
percent of control binding at 10 µM (MLK1; [4]): 100%
percent of control binding at 10 µM (PDGFRA; [4]): 53%
percent of control binding at 10 µM [1, 4]: 100%
percent of control binding at 10 µM (DAPK1; [4]): 29%
percent of control binding at 10 µM (CDC2L2; [4]): 88%
percent of control binding at 10 µM (PRKCD; [4]): 83%
Compound: CNCc1ccc(-c2[nH]c3cc(F)cc4c3c2CCNC4=O)cc1 [Rucaparib]

percent of control binding at 10 µM (BMPR1B; [5]): 100%
percent of control binding at 10 µM (YANK3; [5]): 85%
percent of control binding at 10 µM (EPHA8; [5]): 96%
percent of control binding at 10 µM (PDGFRB; [5]): 99%
percent of control binding at 10 µM (YANK1; [5]): 100%
percent of control binding at 10 µM (MLK1; [5]): 77%
percent of control binding at 10 µM (PDGFRA; [5]): 99%
percent of control binding at 10 µM [1, 5]: 98%
percent of control binding at 10 µM (DAPK1; [5]): 89%
percent of control binding at 10 µM (CDC2L2; [5]): 100%
percent of control binding at 10 µM (PRKCD; [5]): 86%
Compound: Cn1ncnc1[C@H]1c2n[nH]c(=O)c3cc(F)cc(c23)N[C@@H]1c1ccc(F)cc1 [Talazoparib]
